# Assay results as given in patent publication US20080188445A1, “TETRACYCLINE COMPOSITIONS FOR TOPICAL ADMINISTRATION” (WARNER CHILCOTT COMPANY INC., priority 2007, published 2008).
# Where a name gives a salt, the structure may show the parent alone.
# Experiment: Permeation through a silicone membrane, pH effect (side-by-side permeation apparatus)
# Type: in vitro ADME
# Conditions: 32° C.
# From the text: A further study investigated the permeation of minocycline from a liquid formulation comprising 0.47% (w/w) minocycline HCl dissolved in water through a silicone membrane as function of the pH. The diffusion of tetracycline from commercially available Topicycline® (0.2% w/w tetracycline HCl) across a silicone membrane was also compared under equivalent conditions. The permeation apparatus used (FIG. 1) was as follows. The apparatus consisted of two water-jacketed compartments 1 and 2, separated by a standard silicone membrane 3 (SMEM001 002, Esco Rubber, Barloworld Scientific Ltd, UK), which were clamped together. Each water-jacketed compartment 1 and 2 had respective water inlets 4 and water outlets 5 on the respective outer compartments 6, said outer compartments containing water. Inner compartment 7 for containing sample and inner compartment 8 for containing dissolution medium are also shown. The liquid formulation (or the Topicycline®) was immediately introduced into the inner compartment 7 via port 10. A pre-heated 0.9% saline solution (32° C.) was introduced via the sampling port 9 in the inner compartment 8.
compound,measurement,setting,value
CN(C)c1ccc(O)c2c1C[C@H]1C[C@H]3[C@H](N(C)C)C(O)=C(C(N)=O)C(=O)[C@@]3(O)C(O)=C1C2=O [Minocycline HCl],Amount of Tetracycline or Minocycline (μg) detected after 6 hours,"pH 5.0, receiver 0.9% saline",0.17 µg
same,Amount of Tetracycline or Minocycline (μg) detected after 6 hours,"pH 6.2, receiver 0.9% saline",0.55 µg
same,Amount of Tetracycline or Minocycline (μg) detected after 6 hours,"pH 7.0, receiver 0.9% saline",0.31 µg
